Organism: Rattus norvegicus
Assay: DrugMatrix - Regimen: Daily Repeat
Type: toxicity, organism-based, Sprague-Dawley
Set-up: regimen Daily Repeat, gender Male, age 6-8 weeks
Conditions: in vivo, po, route oral GAVAGE, vehicle .5 % CMC; for ABSOLUTE BASOPHIL / ABSOLUTE EOSINOPHIL / ABSOLUTE LYMPHOCYTE / ABSOLUTE MONOCYTE / ABSOLUTE SEGMENTED NEUTROPHIL / BASOPHIL / EOSINOPHIL / ERYTHROCYTE COUNT / HEMATOCRIT / HEMOGLOBIN / LEUKOCYTE COUNT / LYMPHOCYTE / MEAN CORPUSCULAR HEMOGLOBIN / MEAN CORPUSCULAR HEMOGLOBIN CONCENTRATION / MEAN CORPUSCULAR VOLUME / MONOCYTE / NEUTROPHIL / NUCLEATED RED BLOOD CELLS / PLATELET COUNT: tissue Blood; for ALANINE AMINOTRANSFERASE / ALBUMIN / ALKALINE PHOSPHATASE / ASPARTATE AMINOTRANSFERASE / BLOOD UREA NITROGEN / CARBON DIOXIDE / CHLORIDE / CHOLESTEROL / CREATINE PHOSPHOKINASE / CREATININE / GLUCOSE / LACTATE DEHYDROGENASE / LIPASE / PHOSPHORUS / POTASSIUM / SODIUM / TOTAL BILIRUBIN / TOTAL PROTEIN / URIC ACID: tissue Plasma
[1] = 0 mg/kg, 72 h, dose level Control, time 3 day
[2] = 0 mg/kg, 120 h, dose level Control, time 5 day
[3] = 30 mg/kg, 72 h, dose level Low, time 3 day

CCOc1cc(N)c(Cl)cc1C(=O)NCC1CN(Cc2ccc(F)cc2)CCO1 (centres undefined) [MOSAPRIDE]
ABSOLUTE BASOPHIL [1]: 0 CELLS/uL | ABSOLUTE EOSINOPHIL [1]: 171.33 CELLS/uL | ABSOLUTE LYMPHOCYTE [1]: 13776.5 CELLS/uL | ABSOLUTE MONOCYTE [1]: 180.83 CELLS/uL | ABSOLUTE SEGMENTED NEUTROPHIL [1]: 1121.33 CELLS/uL | BASOPHIL [1]: 0% | EOSINOPHIL [1]: 1% | ERYTHROCYTE COUNT [1]: 5.56 x10E6/uL | HEMATOCRIT [1]: 34.75% | HEMOGLOBIN [1]: 13.68 G/DL | LEUKOCYTE COUNT [1]: 15.25 x10E3/uL | LYMPHOCYTE [1]: 90.17% | MEAN CORPUSCULAR HEMOGLOBIN [1]: 24.6 pg | MEAN CORPUSCULAR HEMOGLOBIN CONCENTRATION [1]: 39.4 G/DL | MEAN CORPUSCULAR VOLUME [1]: 62.48 fL | MONOCYTE [1]: 1.17% | NEUTROPHIL [1]: 7.67% | NUCLEATED RED BLOOD CELLS [1]: 0 /100WBC | PLATELET COUNT [1]: 1342 x10E3/uL | ALANINE AMINOTRANSFERASE [1]: 49.67 u/L | ALBUMIN [1]: 4.15 G/DL | ALKALINE PHOSPHATASE [1]: 346.83 u/L | ASPARTATE AMINOTRANSFERASE [1]: 108.17 u/L | BLOOD UREA NITROGEN [1]: 17.33 mg/dL | CARBON DIOXIDE [1]: 25 mmol/L | CHLORIDE [1]: 100.83 MEQ/L | CHOLESTEROL [1]: 66.83 mg/dL | CREATINE PHOSPHOKINASE [1]: 788 u/L | CREATININE [1]: 0.18 mg/dL | GLUCOSE [1]: 151.67 mg/dL | LACTATE DEHYDROGENASE [1]: 982.5 u/L | LIPASE [1]: 10.33 u/L | PHOSPHORUS [1]: 11.23 mg/dL | POTASSIUM [1]: 6.37 MEQ/L | SODIUM [1]: 141.02 MEQ/L | TOTAL BILIRUBIN [1]: 0.18 mg/dL | TOTAL PROTEIN [1]: 5.9 G/DL | URIC ACID [1]: 1.8 mg/dL | ABSOLUTE BASOPHIL [2]: 0 CELLS/uL | ABSOLUTE EOSINOPHIL [2]: 69 CELLS/uL | ABSOLUTE LYMPHOCYTE [2]: 13632.83 CELLS/uL | ABSOLUTE MONOCYTE [2]: 139.83 CELLS/uL | ABSOLUTE SEGMENTED NEUTROPHIL [2]: 1225 CELLS/uL | BASOPHIL [2]: 0% | EOSINOPHIL [2]: 0.33% | ERYTHROCYTE COUNT [2]: 5.52 x10E6/uL | HEMATOCRIT [2]: 33.98% | HEMOGLOBIN [2]: 13.22 G/DL | LEUKOCYTE COUNT [2]: 15.07 x10E3/uL | LYMPHOCYTE [2]: 90.83% | MEAN CORPUSCULAR HEMOGLOBIN [2]: 23.95 pg | MEAN CORPUSCULAR HEMOGLOBIN CONCENTRATION [2]: 38.9 G/DL | MEAN CORPUSCULAR VOLUME [2]: 61.53 fL | MONOCYTE [2]: 0.83% | NEUTROPHIL [2]: 8% | NUCLEATED RED BLOOD CELLS [2]: 0 /100WBC | PLATELET COUNT [2]: 1196 x10E3/uL | ALANINE AMINOTRANSFERASE [2]: 49.17 u/L | ALBUMIN [2]: 4.2 G/DL | ALKALINE PHOSPHATASE [2]: 352.33 u/L | ASPARTATE AMINOTRANSFERASE [2]: 89.67 u/L | BLOOD UREA NITROGEN [2]: 18 mg/dL | CARBON DIOXIDE [2]: 27.67 mmol/L | CHLORIDE [2]: 101 MEQ/L | CHOLESTEROL [2]: 72.83 mg/dL | CREATINE PHOSPHOKINASE [2]: 417.5 u/L | CREATININE [2]: 0.18 mg/dL | GLUCOSE [2]: 150.5 mg/dL | LACTATE DEHYDROGENASE [2]: 517.33 u/L | LIPASE [2]: 9 u/L | PHOSPHORUS [2]: 11.87 mg/dL | POTASSIUM [2]: 6.57 MEQ/L | SODIUM [2]: 143.62 MEQ/L | TOTAL BILIRUBIN [2]: 0.2 mg/dL | TOTAL PROTEIN [2]: 6.08 G/DL | URIC ACID [2]: 1.45 mg/dL | ABSOLUTE BASOPHIL [3]: 0 CELLS/uL | ABSOLUTE EOSINOPHIL [3]: 0 CELLS/uL | ABSOLUTE LYMPHOCYTE [3]: 13493 CELLS/uL | ABSOLUTE MONOCYTE [3]: 253.67 CELLS/uL | ABSOLUTE SEGMENTED NEUTROPHIL [3]: 1253.33 CELLS/uL | BASOPHIL [3]: 0% | EOSINOPHIL [3]: 0% | ERYTHROCYTE COUNT [3]: 5.62 x10E6/uL | HEMATOCRIT [3]: 34.97% | HEMOGLOBIN [3]: 13.6 G/DL | LEUKOCYTE COUNT [3]: 15 x10E3/uL | LYMPHOCYTE [3]: 90% | MEAN CORPUSCULAR HEMOGLOBIN [3]: 24.23 pg | MEAN CORPUSCULAR HEMOGLOBIN CONCENTRATION [3]: 38.9 G/DL | MEAN CORPUSCULAR VOLUME [3]: 62.3 fL | MONOCYTE [3]: 1.67% | NEUTROPHIL [3]: 8.33% | NUCLEATED RED BLOOD CELLS [3]: 0 /100WBC | PLATELET COUNT [3]: 1159.67 x10E3/uL | ALANINE AMINOTRANSFERASE [3]: 57.33 u/L | ALBUMIN [3]: 4.3 G/DL | ALKALINE PHOSPHATASE [3]: 338 u/L | ASPARTATE AMINOTRANSFERASE [3]: 95 u/L | BLOOD UREA NITROGEN [3]: 14.67 mg/dL | CARBON DIOXIDE [3]: 26.33 mmol/L | CHLORIDE [3]: 102 MEQ/L | CHOLESTEROL [3]: 74 mg/dL | CREATINE PHOSPHOKINASE [3]: 533.33 u/L | CREATININE [3]: 0.2 mg/dL | GLUCOSE [3]: 136.67 mg/dL | LACTATE DEHYDROGENASE [3]: 408 u/L | LIPASE [3]: 10.67 u/L | PHOSPHORUS [3]: 12.77 mg/dL | POTASSIUM [3]: 6.39 MEQ/L | SODIUM [3]: 143.7 MEQ/L | TOTAL BILIRUBIN [3]: 0.2 mg/dL | TOTAL PROTEIN [3]: 6 G/DL | URIC ACID [3]: 1.47 mg/dL

— ChEMBL document CHEMBL3885881, “DrugMatrix”
